Results as given in ChEMBL document CHEMBL1144954, “Synthesis and preliminary evaluation of (R,R)(S,S) 5-(2-(2-[4-(2-[(18)F]fluoroethoxy)phenyl]-1-methylethylamino)-1-hydroxyethyl)-benzene-1,3-diol ([(18)F]FEFE) for the in vivo visualisation and quantification of the beta2-adrenergic receptor status in lung” (Bioorg Med Chem Lett, 2003).

Tests used:
[1] = Distribution in heart expressed as [18F]- organ uptake in % of injected activity/gram; assay type: ADME, tissue-based, Cavia porcellus; conditions: guinea pig
[2] = Distribution in liver expressed as [18F]- organ uptake in % of injected activity/gram; assay type: ADME, tissue-based, Cavia porcellus; conditions: guinea pig
[3] = Half-life was measured; assay type: ADME, Cavia porcellus; conditions: guinea pig
[4] = Distribution in kidney expressed as [18F]- organ uptake in % of injected activity/gram; assay type: ADME, tissue-based, Cavia porcellus; conditions: guinea pig
[5] = Distribution in lung expressed as [18F]- organ uptake in % of injected activity/gram; assay type: ADME, tissue-based, Cavia porcellus; conditions: guinea pig
[6] = target: Beta-2 adrenergic receptor (Cavia porcellus, UniProt Q8K4Z4); experiment: In vitro inhibitory concentration Beta-2 adrenergic receptor in Guinea pig trachea
[7] = Distribution in brain expressed as [18F]- organ uptake in % of injected activity/gram; assay type: ADME, tissue-based, Cavia porcellus; conditions: guinea pig
[8] = Distribution in blood expressed as [18F]- organ uptake in % of injected activity/gram; assay type: ADME, tissue-based, Cavia porcellus; conditions: guinea pig
[9] = Distribution in spleen expressed as [18F]- organ uptake in % of injected activity/gram; assay type: ADME, tissue-based, Cavia porcellus; conditions: guinea pig
[10] = Distribution in intestine expressed as [18F]- organ uptake in % of injected activity/gram; assay type: ADME, tissue-based, Cavia porcellus; conditions: guinea pig

Beta-2 adrenergic receptor, sequence (Q8K4Z4 whole entry): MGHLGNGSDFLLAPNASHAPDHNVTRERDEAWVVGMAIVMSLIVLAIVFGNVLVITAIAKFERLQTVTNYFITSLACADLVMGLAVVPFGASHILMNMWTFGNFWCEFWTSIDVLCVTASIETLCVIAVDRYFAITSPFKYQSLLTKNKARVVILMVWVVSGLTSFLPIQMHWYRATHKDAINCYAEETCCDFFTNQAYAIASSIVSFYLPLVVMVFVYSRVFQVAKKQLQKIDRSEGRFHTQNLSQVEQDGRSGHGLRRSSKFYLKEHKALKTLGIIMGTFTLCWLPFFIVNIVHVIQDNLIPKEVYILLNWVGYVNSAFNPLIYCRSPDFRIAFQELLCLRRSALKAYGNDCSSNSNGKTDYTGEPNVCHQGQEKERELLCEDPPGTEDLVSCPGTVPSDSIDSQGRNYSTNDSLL

SMILES: CC(Cc1ccc(OCCF)cc1)NCC(O)c1cc(O)cc(O)c1 (stereo not given)
- ID/g [1]: 0.49%
- ID/g [2]: 0.95%
- half-life [3]: 1.83 h
- ID/g [4]: 0.7%
- ID/g [5]: 1.16%
- IC50 [6]: 60 nM
- ID/g [7]: 0.02%
- ID/g [8]: 0.22%
- ID/g [9]: 0.84%
- ID/g [10]: 0.77%
